Measurements reported in PubChem BioAssay (NCI).
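GI50 = concentration required for 50% inhibition of growth. TGI marks complete inhibition of growth.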

Legend:
Test in all cases: NCI-60 cell line screen, 384-well format
[1] = test system: A498 renal
[2] = test system: A549 NSCLC
[3] = test system: ACHN renal
[4] = test system: BT-549 breast
[5] = test system: CAKI-1 renal
[6] = test system: COLO 205 colon
[7] = test system: DU-145 prostate
[8] = test system: EKVX NSCLC
[9] = test system: HCC-2998 colon
[10] = test system: HCT-116 colon
[11] = test system: HCT-15 colon
[12] = test system: HL-60(TB) leukemia
[13] = test system: HOP-62 NSCLC
[14] = test system: HOP-92 NSCLC
[15] = test system: HS 578T breast
[16] = test system: HT29 colon
[17] = test system: IGROV1 ovarian
[18] = test system: KM12 colon
[19] = test system: LOX IMVI melanoma
[20] = test system: M14 melanoma
[21] = test system: MALME-3M melanoma
[22] = test system: MCF7 breast
[23] = test system: MDA-MB-231 breast
[24] = test system: MDA-MB-435 melanoma
[25] = test system: MDA-MB-468 breast
[26] = test system: MOLT-4 leukemia
[27] = test system: NCI-H226 lung
[28] = test system: NCI-H23 lung
[29] = test system: NCI-H322M lung
[30] = test system: NCI-H460 NSCLC
[31] = test system: NCI-H522 lung
[32] = test system: NCI/ADR-RES ovarian
[33] = test system: OVCAR-3 ovarian
[34] = test system: OVCAR-4 ovarian
[35] = test system: OVCAR-5 ovarian
[36] = test system: OVCAR-8 ovarian
[37] = test system: PC-3 prostate
[38] = test system: RPMI-8226 leukemia
[39] = test system: RXF 393 renal
[40] = test system: SF-268 CNS
[41] = test system: SF-295 CNS
[42] = test system: SF-539 CNS
[43] = test system: SK-MEL-28 melanoma
[44] = test system: SK-MEL-5 melanoma
[45] = test system: SK-OV-3 ovarian
[46] = test system: SN12C renal
[47] = test system: SNB-19 CNS
[48] = test system: SNB-75 CNS
[49] = test system: SR leukemia
[50] = test system: T-47D breast
[51] = test system: TK-10 renal
[52] = test system: U251 glioblastoma
[53] = test system: UACC-257 melanoma
[54] = test system: UACC-62 melanoma

SMILES: Clc1ccc(N2CCC(N3CCCC3)CC2)cc1-c1nc2ccccc2[nH]1
- GI50 [1]: 14.4 µM
- TGI [1]: 27.6 µM
- GI50 [2]: 17.2 µM
- TGI [2]: 32.3 µM
- GI50 [3]: 16.6 µM
- TGI [3]: 30.8 µM
- GI50 [4]: 8.67 µM
- TGI [4]: 20.9 µM
- GI50 [5]: 16.9 µM
- TGI [5]: 33.4 µM
- GI50 [6]: 14.3 µM
- TGI [6]: 27.6 µM
- GI50 [7]: 15.3 µM
- TGI [7]: 32.5 µM
- GI50 [8]: 14.2 µM
- TGI [8]: 28.1 µM
- GI50 [9]: 12.5 µM
- TGI [9]: 25.3 µM
- GI50 [10]: 11.7 µM
- TGI [10]: 24.7 µM
- GI50 [11]: 3.84 µM
- TGI [11]: 14.1 µM
- GI50 [12]: 12.3 µM
- TGI [12]: 25 µM
- GI50 [13]: 16.1 µM
- TGI [13]: 29.8 µM
- GI50 [14]: 18.4 µM
- TGI [14]: 32.8 µM
- GI50 [15]: 14.8 µM
- TGI [15]: 28.1 µM
- GI50 [16]: 10.9 µM
- TGI [16]: 23.6 µM
- GI50 [17]: 15.5 µM
- TGI [17]: 29.5 µM
- GI50 [18]: 14.8 µM
- TGI [18]: 29.1 µM
- GI50 [19]: 16.5 µM
- TGI [19]: 30.2 µM
- GI50 [20]: 18 µM
- TGI [20]: 32 µM
- GI50 [21]: 13 µM
- TGI [21]: 25.8 µM
- GI50 [22]: 12.1 µM
- TGI [22]: 25.4 µM
- GI50 [23]: 17 µM
- TGI [23]: 31.2 µM
- GI50 [24]: 17.1 µM
- TGI [24]: 30.9 µM
- GI50 [25]: 14.1 µM
- TGI [25]: 27.3 µM
- GI50 [26]: 16.5 µM
- TGI [26]: 30.3 µM
- GI50 [27]: 15.2 µM
- TGI [27]: 28.6 µM
- GI50 [28]: 14.1 µM
- TGI [28]: 27.7 µM
- GI50 [29]: 14.3 µM
- TGI [29]: 32 µM
- GI50 [30]: 17.2 µM
- TGI [30]: 31.4 µM
- GI50 [31]: 17.7 µM
- TGI [31]: 31.6 µM
- GI50 [32]: 15.4 µM
- TGI [32]: 32.5 µM
- GI50 [33]: 14.6 µM
- TGI [33]: 28 µM
- GI50 [34]: 11.9 µM
- TGI [34]: 25.9 µM
- GI50 [35]: 15.8 µM
- TGI [35]: 30.1 µM
- GI50 [36]: 16.7 µM
- TGI [36]: 31.1 µM
- GI50 [37]: 15.1 µM
- TGI [37]: 30.5 µM
- GI50 [38]: 16.1 µM
- TGI [38]: 29.7 µM
- GI50 [39]: 15.1 µM
- TGI [39]: 28.6 µM
- GI50 [40]: 16.3 µM
- TGI [40]: 30.1 µM
- GI50 [41]: 17.8 µM
- TGI [41]: 31.8 µM
- GI50 [42]: 16.9 µM
- TGI [42]: 30.9 µM
- GI50 [43]: 14.9 µM
- TGI [43]: 28.3 µM
- GI50 [44]: 4.01 µM
- TGI [44]: 16 µM
- GI50 [45]: 14.1 µM
- TGI [45]: 27.5 µM
- GI50 [46]: 11.8 µM
- TGI [46]: 24.5 µM
- GI50 [47]: 18.2 µM
- TGI [47]: 37 µM
- GI50 [48]: 16.9 µM
- TGI [48]: 31 µM
- GI50 [49]: 11.8 µM
- TGI [49]: 24.2 µM
- GI50 [50]: 13.9 µM
- TGI [50]: 27.4 µM
- GI50 [51]: 12.4 µM
- TGI [51]: 25 µM
- GI50 [52]: 16.9 µM
- TGI [52]: 30.7 µM
- GI50 [53]: 2 µM
- TGI [53]: 4.78 µM
- GI50 [54]: 13.5 µM
- TGI [54]: 26.6 µM
